Consider three compounds from patent publication US11993640B2, “Treating inflammatory lung disease” (United States Government as represented by the Department …, priority 2019, dated 2024).

Non-standard residues stand in square brackets, D forms with d. Residues, ends and D or L forms follow the SMILES beside them. *: point of attachment. Phenylacetyl(2,3,4,5,6-F5) = O=C(Cc1c(F)c(F)c(F)c(F)c1F)*; Phe(4-Cl) = N[C@@H](Cc1ccc(Cl)cc1)C(=O)O; hArg = N=C(N)NCCCC[C@H](N)C(=O)O; 12Ado = NCCCCCCCCCCCC(=O)O; Nle = CCCC[C@H](N)C(=O)O; Abu = CC[C@H](N)C(=O)O; PhAc = O=C(Cc1ccccc1)*; Aoc = NCCCCCCCC(=O)O

This assay has as its system KATOIII cells. The experiment in a line: In vitro cell viability, stomach cancer KATOIII. The class given is cell-based, human. Particulars: 5 μM, 72 h; relative to MIA602 = 1; Table 3A. The protocol: The inhibitory effects of the various synthesized GHRH antagonists were tested in cell proliferation assays in various human cancer cell lines including stomach cancer (KATOIII, N87), colon cancer (HT-29), urothelial cancer (J82, RT4), pancreatic cancer (PANC-1, CFPAC-1), prostatic cancer (PC3), breast cancer (MX-1, HCC1806), ovarian cancer (SK-OV-3, OVCAR-3) and lung cancer (HCC827, H460).
Cell culture. Human cancer cell lines including pancreatic (PANC-1 and CFPAC-1), lung (HCC827 and H460), stomach (NCI-N87 and KATOIII), urothelial (J82, RT4), prostatic (PC3), breast (MX-1 and HCC 1806), colorectal (HT-29), and ovarian (SK-OV-3 and OVCAR-3) were obtained from the American Type Culture Collection (ATCC) and cultured at 37° C. in a humidified 95% air/5% CO2 atmosphere in the medium recommended by ATCC.
In vitro cell viability. Cell viability was analyzed as follows: cancer cells including pancreatic (PANC-1 and CFPAC-1), lung (HCC827 and H460), stomach (NCI-N87 and KATOIII), urothelial (J82, RT4), prostatic (PC3) and breast (MX-1 and HCC 1806), colorectal (HT-29) and ovarian (SK-OV-3 and OVCAR-3) were grown on 96 well plates to ˜60% confluence, the cells were starved for 24 h in culture medium containing 0.5% FBS. Cells were then treated with GHRH antagonists MIA602 AVR compounds at concentrations of 1, 2.5 or 5 μM, or vehicle (0.1% DMSO) in quintuplicates for 72 hours. The medium was replaced every 48 hours. Cell viability was measured using CellTiter 96 aqueous one solution kit (Promega). Inhibitory effects of tested AVR compounds in comparison to that of MIA602 are presented as inhibitory potency.
Inhibitory effects of selected AVR compounds in comparison to that of MIA602 are presented as inhibitory potency (e.g., percentage of inhibition). […] The cell lines tested including lung cancer HCC827 (FIG. 2A), pancreatic cancer CFPAC-1 (FIG. 2B), stomach cancer N87 (FIG. 2C), colon cancer HT-29 (FIG. 2D), breast cancers MX-1 and HCC1806 (FIGS. 2E, F). Based on the results of cell proliferation assay after cancer cells were treated with antagonist at concentration of 5 μM for 72H, the relative inhibitory potency of AVR antagonists in comparison to MIA-602 is summarized in Table 3 A and B. Over 60 AVR compounds were tested in 12 cancer cell lines.
Regarding `CCCC[C@H](NC(=O)[C@@H](NC(=O)[C@H](CC(=O)O)NC(=O)[C@H](CCC(N)=O)NC(=O)[C@H](CC(C)C)NC(=O)[C@H](CC(C)C)NC(=O)[C@H](CCCCN)NC(=O)[C@H](CCCNC(=N)N)NC(=O)[C@H](C)NC(=O)[C@H](CO)NC(=O)[C@H](CC(C)C)NC(=O)[C@H](CCC(N)=O)NC(=O)[C@H](CC)NC(=O)[C@H](CC(C)C)NC(=O)[C@@H](NC(=O)[C@H](CCCCN)NC(=O)[C@H](CCCNC(=N)N)NC(=O)[C@H](Cc1ccc(OC)cc1)NC(=O)[C@H](CCCCNC(=N)N)NC(=O)[C@H](CC(N)=O)NC(=O)[C@@H](NC(=O)[C@H](Cc1ccc(Cl)cc1)NC(=O)[C@@H](NC(=O)[C@H](C)NC(=O)[C@H](CC(=O)O)NC(=O)[C@@H](CCCNC(=N)N)NC(=O)[C@H](Cc1ccc(O)cc1)NC(=O)CCCCCCCCCCCNC(=O)Cc1ccccc1)[C@@H](C)CC)[C@@H](C)O)C(C)C)[C@@H](C)CC)C(=O)N[C@H](CCCNC(=N)N)C(=O)N[C@@H](CCCCNC(=N)N)C(=O)NCCCCCCCC(=O)NC` [AVR-321, PhAC-Ada-Tyr-DArg-Asp-Ala-Ile-Cpa-Thr-Asn-Har-Tyr(Me)-Arg-Lys-Val-Leu-Abu-Gln-Leu-Ser-Ala-Arg-Lys-Leu-Leu-Gln-Asp-Ile-Nle-DArg-Har-Aoc-NHCH3] ({PhAc-12Ado}-Y[dR]DAI[Phe(4-Cl)]TN[hArg]Y(Me)RKVL[Abu]QLSARKLLQDI[Nle][dR][hArg][Aoc]-NHMe), the “Relative inhibitory potency, Stomach KATOIII” value was found to be 1.414.
For `CCCC[C@H](NC(=O)[C@@H](NC(=O)[C@H](CC(=O)O)NC(=O)[C@H](CCC(N)=O)NC(=O)[C@H](CC(C)C)NC(=O)[C@H](CC(C)C)NC(=O)[C@H](CCCCN)NC(=O)[C@H](CCCNC(=N)N)NC(=O)[C@H](C)NC(=O)[C@H](CO)NC(=O)[C@H](CC(C)C)NC(=O)[C@H](CCC(N)=O)NC(=O)[C@H](CC)NC(=O)[C@H](CC(C)C)NC(=O)[C@@H](NC(=O)[C@H](CCCCN)NC(=O)[C@H](CCCNC(=N)N)NC(=O)[C@H](Cc1ccc(OC)cc1)NC(=O)[C@H](CCCCNC(=N)N)NC(=O)[C@H](CC(N)=O)NC(=O)[C@@H](NC(=O)[C@H](Cc1ccc(Cl)cc1)NC(=O)[C@@H](NC(=O)[C@H](C)NC(=O)[C@H](CC(=O)O)NC(=O)[C@@H](CCCNC(=N)N)NC(=O)[C@H](Cc1ccc(O)cc1)NC(=O)CCCCCCCCCCCNC(=O)Cc1c(F)c(F)c(F)c(F)c1F)[C@@H](C)CC)[C@@H](C)O)C(C)C)[C@@H](C)CC)C(=O)N[C@H](CCCNC(=N)N)C(=O)N[C@@H](CCCCNC(=N)N)C(=O)NCCCCCCCC(=O)NC` [AVR-322, 5FPhAC-Ada-Tyr-DArg-Asp-Ala-Ile-Cpa-Thr-Asn-Har-Tyr(Me)-Arg-Lys-Val-Leu-Abu-Gln-Leu-Ser-Ala-Arg-Lys-Leu-Leu-Gln-Asp-Ile-Nle-DArg-Har-Aoc-NHCH3] ({Phenylacetyl(2,3,4,5,6-F5)-12Ado}-Y[dR]DAI[Phe(4-Cl)]TN[hArg]Y(Me)RKVL[Abu]QLSARKLLQDI[Nle][dR][hArg][Aoc]-NHMe) the value was 1.296.
As to `CCCC[C@H](NC(=O)[C@@H](NC(=O)[C@H](CC(=O)O)NC(=O)[C@H](CCC(N)=O)NC(=O)[C@H](CC(C)C)NC(=O)[C@H](CC(C)C)NC(=O)[C@H](CCCCN)NC(=O)[C@H](CCCNC(=N)N)NC(=O)[C@H](C)NC(=O)[C@H](CO)NC(=O)[C@H](CC(C)C)NC(=O)[C@H](CCC(N)=O)NC(=O)[C@H](CC)NC(=O)[C@H](CC(C)C)NC(=O)[C@@H](NC(=O)[C@H](CCCCN)NC(=O)[C@H](CCCNC(=N)N)NC(=O)[C@H](Cc1ccc(OC)cc1)NC(=O)[C@H](CCCCNC(=N)N)NC(=O)[C@H](CC(N)=O)NC(=O)[C@@H](NC(=O)[C@H](Cc1ccc(Cl)cc1)NC(=O)[C@@H](NC(=O)[C@H](C)NC(=O)[C@H](CC(=O)O)NC(=O)[C@@H](CCCNC(=N)N)NC(=O)[C@H](Cc1ccc(O)cc1)NC(=O)CCCCCCCCCCCNC(=O)Cc1ccccc1)[C@@H](C)CC)[C@@H](C)O)C(C)C)[C@@H](C)CC)C(=O)N[C@H](CCCNC(=N)N)C(=O)N[C@@H](CCCCNC(=N)N)C(=O)NCCCCCCCCCCCC(N)=O` [AVR-332] ({PhAc-12Ado}-Y[dR]DAI[Phe(4-Cl)]TN[hArg]Y(Me)RKVL[Abu]QLSARKLLQDI[Nle][dR][hArg][12Ado]-NH2), the “Relative inhibitory potency, Stomach KATOIII” value came to 1.643.
